Experimental data reported in patent EP4813970A1, “L-SERINE HAVING REDUCED HEAVY METAL AMOUNT, PHARMACEUTICAL COMPOSITION THEREOF, PREPARATION METHOD THEREFOR, AND USE THEREOF” (priority 2023, dated 2025).
Where two headings read alike, the source gives them in different places.

What was measured:
primary neurons = assay: Multi-electrode array (MEA) of neuronal electrical activity under DMNQ neurotoxicity; format: cell-based, mouse; details: FIG. 3
Experimental: After adding an equal volume of culture medium, cells were separated by a mechanical method using a pipet, and single cells were separated using a 40 µm cell strainer. After centrifugation at 2,000 rpm for 5 minutes, the supernatant was removed and resuspended in culture medium. […] A 50% PEI solution, which was prepared by mixing borate buffer and PEI in a 1:1 ratio, was diluted with a 0.1% PEI solution using borate buffer and then filtered using a 0.22 µm filter. […] Laminin stock stored at -20°C was thawed at 4°C and then diluted in serum-free medium (20 ng/mL). 40 µL of 0.1% PEI was added to each well of a 24-well MEA plate, and then the 24-well MEA plate was placed in a cell incubator at 37°C and 5% CO2 for 60 minutes. After washing the 24-well MEA plate three times with sterile DW, the laminin solution was added 50 µL per well and placed overnight in a cell incubator at 37°C and 5% CO2. After removing the laminin solution from the 24-well MEA plate, the prepared primary neurons were seeded at a concentration of 1.0 × 10^5 cells/well. […] Neuronal electrical activity was measured using the Maestro Edge system every 30 minutes for 15 minutes, and the same amount of secondary purified L-serine was pretreated for 4 hours based on 0.1 mM unpurified L-serine. After drug pretreatment for 4 hours, neuronal electrical activity was measured 4 times at 30 minute intervals during 2-hour treatment with 20 µM DMNQ, and the data was analyzed using a neural metric tool and an axis metric plotting tool. […] For the MEA, neurons were cultured on electrodes for several weeks to form a network and then the electrical signals, that is action potentials, generated from the neurons were measured. […] The primary neuronal culture was cultured in 24-well MEA plates for approximately 15 days, and when electrical signals were passed through sporadic bursts and activated into synchronous network bursts, test substances were treated at concentrations not affecting cell viability, and action potentials were measured and compared.

[1] = system: 5XFAD (Tg6799; five familial mutation); assay: Survival on 9-month administration in an Alzheimer's disease animal model; format: in vivo, mice; details: 500 mg/kg orally 5 days a week for 9 months, 3 to 12 months of age
Experimental: In order to measure the extent to which the class 1 heavy metal content in L-serine affects neurons when taken over a long period of time, long-term administration of L-serine for 9 months from the early stage of the disease (3 months of age) to 12 months of age was conducted using 5XFAD (Tg6799; five familial mutation), which is an animal model of Alzheimer's disease, and the effect of the drug on animal viability was confirmed. Specifically, WT & 5XFAD mice (purchased from The Jackson Lab) administered with saline and WT & 5XFAD mice administered with L-serine were composed of 12 mice per group. Saline and 500 mg/kg of unpurified L-serine and secondary purified L-serine were orally administered 5 days a week for 9 months, and after administration, the survival rate (%) was measured through daily observation of mice and designated as survival rate.

[2] = system: fetuses with 3-PGDH deficiency; details: cited from earlier work
HT22 cells = assay: Mitochondrial membrane potential by JC-1 staining after DMNQ damage; format: cell-based
Experimental: HT22 cells were cultured under 37°C and 5% CO2 conditions using DMEM medium containing 10% FBS, 100 unit/mL penicillin, and 100 µg/mL streptomycin. […] After checking the condition of the cells, 5 µM JC-1 was added to the medium and the cells were stained for 30 minutes under 37°C and 5% CO2 conditions, treated with 0.25% trypsin-EDTA and the cells were collected in an e-tube, washed twice with PBS, and analyzed with Attune NxT. The effect of L-serine, which contains class 1 heavy metals, on mitochondria, which affects both neurological diseases and metabolic diseases, was confirmed depending on the concentration of class 1 heavy metals. DMNQ causes oxidative stress and excessive production of ROS, which induces mitochondrial membrane potential depolarization, thereby resulting in mitochondrial dysfunction and apoptosis. In mitochondria, an electrochemical proton gradient is created through the mitochondrial membrane, which produces ATP, and when mitochondria are damaged and apoptosis occurs, mitochondrial permeability pores are opened and thus mitochondrial transmembrane potential decreases (membrane potential depolarization). Mitochondrial membrane potential difference, which is an indicator of apoptosis, was measured through JC-1 staining. JC-1 enters the mitochondria in normal cells due to changes in mitochondrial membrane potential and forms a multicomplex, thereby giving it a red color, whereas when apoptosis occurs due to depolarization of the mitochondrial membrane potential, JC-1 remains in the cytoplasm and gives it a green color. Four hours before DMNQ treatment, neurons were treated with unpurified L-serine, primary purified L-serine, and secondary purified L-serine, and then treating with DMNQ for 2 hours and 30 minutes, the degree of protection of neurons was measured by measuring the mitochondrial membrane potential difference through JC-1 staining.

[3] = system: patients with hereditary sensory and autonomic neuropathy type 1 (HSAN1); details: cited from earlier work
[4] = system: patients with autism spectrum disorder; assay: Phase 2 clinical trial of L-serine in children under 11 years of age; details: 400 mg/kg for 24 weeks
[5] = system: patients with amyotrophic lateral sclerosis (ALS); details: cited from earlier work
[6] = 4 hours pretreatment (based on 0.1 mM unpurified L-serine), then 2-hour 20 µM DMNQ
[7] = oral twice a day, maximum dose of 15 g/day for 6 months

With N[C@@H](CO)C(=O)O [secondary purified L-serine, L-serine] the “active electrodes (spikes and network bursts)” value (shortened to “active electrodes”) (primary neurons; [6]) was “active electrodes in a state without DMNQ treatment were maintained” and the survival rate [1] was 80%.
For N[C@@H](CO)C(=O)O [unpurified L-serine, L-serine], the “active electrodes” value (primary neurons; [6]) was “the effect was not distinct” and the survival rate [1] was 58%.
In the case of N[C@@H](CO)C(=O)O [L-serine], the “brain growth in fetuses” value ([2]; maternal supply of L-serine during pregnancy) is listed as “shown to improve brain growth”, the neurological symptoms ([2]; postnatal children (birth to 4 years old)) is listed as “shown to prevent neurological symptoms” and the adverse reactions ([2]; pregnant women, fetuses, and newborns) is listed as “no adverse reactions were observed”. For the same molecule, the “mitochondrial damage (green)” value (HT22 cells; 0.5 mM, pre-treated 4 hours, then 20 µM DMNQ) was 32.1±1.52%, the “mitochondrial damage (green)” value (HT22 cells; 1 mM, pre-treated 4 hours, then 20 µM DMNQ) was 18.7±11.1% and the “mitochondrial damage (green)” value (HT22 cells; 2.5 mM, pre-treated 4 hours, then 20 µM DMNQ) was 1.5±0.23%. The “safety and Charcot-Marie-Tooth Neuropathy Score (CMTNS)” value ([3]; 400 mg/kg/day for up to 2 years) was “effects of improving safety and Charcot-Marie-Tooth Neuropathy Score (CMTNS) were confirmed”, the “1-deoxySL (dSL)” value ([3]; oral, up to 400 mg/kg/day for 10 and 52 weeks) was “reduced” and the side effects [4] was “without any unusual side effects”. The treatment efficiency [4] was “about 40%”, the “progression of the patients' disease” value [5, 7] was “showed the effect of delaying the progression of the patients' disease” and the safety [5, 7] was “safe”. The safety ([5]; phase 2 clinical trials, up to 15 g twice a day for 6 months) was “shown to be safe”.
In the case of COC1=C(OC)C(=O)c2ccccc2C1=O [DMNQ], the “active electrodes” value (primary neurons; 20 µM DMNQ alone, compared to the control group) is reported as “significantly reduced” and the “mitochondrial damage (green)” value (HT22 cells; 20 µM DMNQ alone) is reported as 81.4±4.2%.
